In paper PMC12615518, “Discovery of CRBN-recruiting PROTAC degraders of the METTL3-METTL14 complex” (Medicinal Chemistry Research, 2025):
Entries after “also recorded” stand apart in the source; their conditions may differ.

Key:
[1] = target: T1, METTL14 (Homo sapiens, UniProt Q9HCE5); experiment: Immunoblotting (Western blot) degradation of METTL14 in MV4-11 cells; type: cell-based
T1 construct: Following treatment, total cellular proteins were extracted using RIPA buffer; endogenous in cells; host or cells: MV4-11 (MV4.11) human AML cells, ATCC
T1 sequence (Q9HCE5 whole entry): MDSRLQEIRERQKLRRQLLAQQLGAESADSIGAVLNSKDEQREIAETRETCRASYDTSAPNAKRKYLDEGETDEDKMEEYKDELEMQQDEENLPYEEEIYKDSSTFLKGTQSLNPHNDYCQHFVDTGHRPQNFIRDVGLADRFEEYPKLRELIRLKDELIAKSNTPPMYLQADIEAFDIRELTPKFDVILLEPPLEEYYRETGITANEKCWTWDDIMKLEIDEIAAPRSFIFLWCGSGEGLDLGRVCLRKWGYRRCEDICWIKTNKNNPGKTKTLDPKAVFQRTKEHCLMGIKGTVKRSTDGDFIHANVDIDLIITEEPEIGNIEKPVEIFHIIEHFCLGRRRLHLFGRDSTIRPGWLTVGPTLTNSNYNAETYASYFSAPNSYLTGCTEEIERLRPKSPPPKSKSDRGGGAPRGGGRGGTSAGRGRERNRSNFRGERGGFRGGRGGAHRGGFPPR
T1 sequence (Q86U44 2-580 partner): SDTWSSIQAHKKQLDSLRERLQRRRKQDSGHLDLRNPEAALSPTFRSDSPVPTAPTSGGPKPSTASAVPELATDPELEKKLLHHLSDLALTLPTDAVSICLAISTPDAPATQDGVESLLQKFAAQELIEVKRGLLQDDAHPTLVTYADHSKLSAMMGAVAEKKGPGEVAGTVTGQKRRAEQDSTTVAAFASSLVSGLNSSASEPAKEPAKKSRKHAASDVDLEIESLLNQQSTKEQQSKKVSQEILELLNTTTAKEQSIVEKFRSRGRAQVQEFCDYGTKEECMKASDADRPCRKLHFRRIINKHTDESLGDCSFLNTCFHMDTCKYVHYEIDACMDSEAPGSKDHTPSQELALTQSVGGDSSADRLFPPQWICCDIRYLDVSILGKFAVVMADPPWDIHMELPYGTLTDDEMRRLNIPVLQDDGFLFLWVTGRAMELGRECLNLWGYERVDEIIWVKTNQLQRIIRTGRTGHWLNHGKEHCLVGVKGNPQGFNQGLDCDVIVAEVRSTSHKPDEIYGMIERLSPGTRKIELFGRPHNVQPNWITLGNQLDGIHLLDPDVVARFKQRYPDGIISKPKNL
Procedure: (§1) All cell lines were maintained under standard conditions in a humidified atmosphere at 37 °C with 5% CO₂.
(§2) Western Blot Analysis: Following treatment, total cellular proteins were extracted using RIPA buffer (Auragene, Changsha, China). […] After washing, membranes were incubated with horseradish peroxidase (HRP)-conjugated secondary antibodies (anti-rabbit or anti-mouse IgG; 1:5000) for 2 hours at room temperature. Protein bands were visualized using an enhanced chemiluminescence (ECL) detection kit (Amersham Pharmacia), following the manufacturer's protocol. Band intensities were quantified using ImageJ software and normalized to ACTIN as a loading control. Data was analyzed using GraphPad Prism 9.

[2] = test system: MOLM13 cells; experiment: Cell viability assay (CCK-8) in MOLM13 cells; type: cell-based, human; conditions: CCK-8, normalized to vehicle
Procedure: (§3) We proceeded to evaluate the cytotoxic activities of ZW30441 in AML cell lines by treating MOLM13 and MV4-11 cells with ZW30441 in increasing doses for 72 h.
(§4) Cell Lines and Culture Conditions: The human acute myeloid leukemia (AML) cell lines MOLM13 and MV4.11, as well as the HEK 293T epithelial kidney cell line, were obtained from the American Type Culture Collection (ATCC, USA). AML cells were maintained in RPMI-1640 medium (Gibco, USA) supplemented with 10% fetal bovine serum (FBS) and 1% penicillin-streptomycin (Sigma, Germany). HEK 293T cells were cultured in complete Dulbecco’s Modified Eagle Medium (DMEM) containing 10% FBS and 1% penicillin-streptomycin (Sigma). All cell lines were maintained under standard conditions in a humidified atmosphere at 37 °C with 5% CO₂.
(§5) Cell Viability Assay: AML cells were seeded in 96-well plates at a density of 5,000 cells per well and treated with varying concentrations of ZW30441 or vehicle (dimethyl sulfoxide, DMSO). Each condition was performed in triplicate. After the treatment period, cell viability was measured using the Cell Counting Kit-8 (CCK-8; APExBIO, USA, Cat# K1018) according to the manufacturer’s instructions. Absorbance was recorded at 450 nm using a SPECTROstar microplate reader (BMG LABTECH, USA).

[3] = test system: MV4-11 cells; experiment: Cell viability assay (CCK-8) in MV4-11 cells; type: cell-based; conditions: Homo sapiens, MV4-11, 72 h, CCK-8, normalized to vehicle
Procedure: as §3, §4, §5

[4] = test system: MOLM13 cells; experiment: Cell proliferation assay in MOLM13 cells; type: cell-based, human; conditions: MOLM-13 cells, 5 µM, 4-day period
Procedure: as §3
(§6) Cell Proliferation Assay: To assess cell growth, 1×10⁵ cells were seeded per well in 24-well plates in triplicate and treated with 5 µM concentrations of the test compounds. The culture medium containing the compounds was refreshed every 48 hours, and cell densities were maintained below 1×10⁶ cells/mL through periodic dilution. Cell numbers were measured every other day over a 4-day period using a DS-11 automated cell counter (DeNovix, USA).

[5] = test system: MV4-11 cells; experiment: Cell proliferation assay in MV4-11 cells; type: cell-based, human; conditions: 5 µM, 4-day period
Procedure: as §3, §6

[6] = target: T2, METTL3 (Homo sapiens, UniProt Q86U44); experiment: Mechanism study: METTL3 Western blot in HEK293T cells after pretreatment with proteasome inhibitors or CRBN ligand; type: cell-based; set-up: endogenous in cells; conditions: then ZW30441 2.5 µM for 24 h
T2 sequence (Q86U44 2-580 limits assumed): as the sequence (Q86U44 2-580 partner) above
T2 sequence (Q9HCE5 whole entry partner): as the sequence (Q9HCE5 whole entry) above
Procedure: We next explored the mechanisms of ZW30441-induced METTL3-METTL14 degradation. HEK293T cells were pretreated with the proteasome inhibitors bortezomib (0.1 µM) or MG132 (1 µM) for 2 h before ZW30441 (2.5 µM) administration (Fig. 4A).
Fig. 4 ZW30441 induced METTL3-METTL14 complex degradation through the ubiquitin-proteasome system and affected the survival of human AML cell lines. A Western blot analysis of METTL3 expression in HEK293T cells after pretreatment with the CRBN ligand pomalidomide (10 µM) or the proteasome inhibitors bortezamib (0.1 µM) or MG132 (1 µM) for 2 h, followed by treatment with ZW30441 (2.5 µM) for 24 h (left). Western blot analysis of METTL3 and METTL14 levels in MV4-11 cells after treatment with UHZ2, ZW30441, and the negative control ZW30441NC at the indicated concentration for 24 h (right). B Cell viability study of ZW30441 in MOLM13 and MV4-11 cell lines (left). […]
Western Blot Analysis: Following treatment, total cellular proteins were extracted using RIPA buffer (Auragene, Changsha, China). […] Band intensities were quantified using ImageJ software and normalized to ACTIN as a loading control. Data was analyzed using GraphPad Prism 9. Degradation efficiency was evaluated by calculating DC₅₀, the drug concentration required to reduce target protein levels by 50%, and Dₘₐₓ, the maximum level of degradation observed across all tested concentrations.

[7] = target: T2, METTL3; experiment: Immunoblotting (Western blot) degradation of METTL3 in MV4-11 cells; type: cell-based; set-up: Following treatment, total cellular proteins were extracted using RIPA buffer; endogenous in cells; host or cells: MV4-11 (MV4.11) human AML cells, ATCC
Procedure: as §1, §2

[8] = MV4-11 cells, 0.3 µM, 24 h, immunoblotting, nd = no degradation
[9] = MV4-11 cells, 1.0 µM, 24 h, immunoblotting, nd = no degradation
[10] = MV4-11 cells, 24 h, Western blot normalized against ACTIN
[11] = MV4-11 cells, time course at 1 µM

Dmax ([1]; MV4-11, MV4-11 cells, 24 h): 65%
% reduction in MV4-11 cells, 0.3 µM, METTL14 [1, 8]: 56%
% reduction in MV4-11 cells, 1.0 µM, METTL14 [1, 9]: 77%
DC50 [1, 10]: 130 nM
time of maximum degradation of METTL14 [1, 11]: 20 h
Dmax ([7]; MV4-11, MV4-11 cells, 24 h): 80%
% reduction in MV4-11 cells, 0.3 µM, METTL3 [7, 8]: 58%
% reduction in MV4-11 cells, 1.0 µM, METTL3 [7, 9]: 81%
DC50 [7, 10]: 440 nM
time of maximum degradation of METTL3 [7, 11]: 20 h
Compound: CC1(C)CCN(Cc2cc(F)c(N3CC(=O)NC4(CCN(c5cc(NCCCCCCCCCC(=O)N6CCN(c7ccc8c(c7)CN(C7CCC(=O)NC7=O)C8=O)CC6)ncn5)CC4)C3)cc2F)CC1 (stereo not drawn) [Compound 4j, 3-(5-(4-(10-((6-(4-(4-((4,4-dimethylpiperidin-1-yl)methyl)-2,5-difluorophenyl)-2-oxo-1,4,9-triazaspiro[5.5]undecan-9-yl)pyrimidin-4-yl)amino)decanoyl)piperazin-1-yl)-1-oxoisoindolin-2-yl)piperidine-2,6-dione]
EC50 ([2]; 72 h, listed as ZW30441): 1020 nM
EC50 ([2]; Homo sapiens, MOLM-13, 72 h): 1020 nM
EC50 [3]: 2410 nM
cell growth inhibition compared to STM2457 and UZH2 [4]: comparable cell growth inhibition
anti-proliferation activity compared to STM2457 and UZH2 [5]: enhanced cytotoxicity
anti-proliferation activity compared to STM2457 and UZH2 ([5]; listed as ZW30441): more potent anti-proliferation activity; also recorded: superior cellular activity
METTL3 degradation after pretreatment with proteasome inhibitors ([6]; bortezomib (0.1 µM) or MG132 (1 µM) for 2 h): effectively blocked; also recorded: abrogated
METTL3 degradation after pretreatment with CRBN ligand pomalidomide ([6]; pomalidomide 10 µM for 2 h): significantly reduced; also recorded: abrogated
